In this assay the target is T1, purified human HDAC6 (Homo sapiens, UniProt Q9UBN7).
T1 construct: purchased BPS Bioscience 5006
T1 sequence (Q9UBN7 1-1215): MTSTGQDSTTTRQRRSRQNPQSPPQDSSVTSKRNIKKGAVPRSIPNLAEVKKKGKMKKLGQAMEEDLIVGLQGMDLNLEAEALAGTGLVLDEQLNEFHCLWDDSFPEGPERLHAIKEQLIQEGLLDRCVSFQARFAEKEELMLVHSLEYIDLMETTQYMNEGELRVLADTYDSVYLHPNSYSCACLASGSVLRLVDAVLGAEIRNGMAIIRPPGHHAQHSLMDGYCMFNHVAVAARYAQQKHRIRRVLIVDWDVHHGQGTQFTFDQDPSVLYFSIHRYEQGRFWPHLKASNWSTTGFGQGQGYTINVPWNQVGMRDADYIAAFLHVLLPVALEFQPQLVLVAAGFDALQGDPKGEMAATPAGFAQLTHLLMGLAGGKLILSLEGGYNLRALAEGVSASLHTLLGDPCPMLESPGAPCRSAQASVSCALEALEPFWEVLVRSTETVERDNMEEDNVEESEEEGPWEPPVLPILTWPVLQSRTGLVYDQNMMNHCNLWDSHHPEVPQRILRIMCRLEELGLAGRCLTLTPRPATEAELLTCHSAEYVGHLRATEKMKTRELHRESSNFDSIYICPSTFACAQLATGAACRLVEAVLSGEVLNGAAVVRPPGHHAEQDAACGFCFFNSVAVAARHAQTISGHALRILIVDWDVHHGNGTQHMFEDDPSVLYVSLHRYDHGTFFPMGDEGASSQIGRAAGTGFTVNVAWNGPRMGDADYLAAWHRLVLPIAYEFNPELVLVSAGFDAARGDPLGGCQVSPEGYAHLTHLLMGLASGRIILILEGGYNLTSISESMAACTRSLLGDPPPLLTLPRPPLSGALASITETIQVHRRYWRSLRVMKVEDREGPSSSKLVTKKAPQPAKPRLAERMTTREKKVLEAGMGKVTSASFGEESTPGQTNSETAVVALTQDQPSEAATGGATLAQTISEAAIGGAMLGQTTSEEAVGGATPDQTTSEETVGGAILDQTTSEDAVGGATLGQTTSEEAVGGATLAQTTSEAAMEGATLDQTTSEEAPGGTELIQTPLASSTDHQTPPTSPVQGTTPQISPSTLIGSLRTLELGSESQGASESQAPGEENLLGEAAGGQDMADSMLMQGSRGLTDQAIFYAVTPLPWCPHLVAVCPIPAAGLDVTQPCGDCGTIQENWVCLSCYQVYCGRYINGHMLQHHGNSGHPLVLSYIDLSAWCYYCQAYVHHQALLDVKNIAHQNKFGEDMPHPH
Briefly: HDAC6 Enzyme Assay. The assay is classed as biochemical. Particulars: purified human HDAC6, substrate Ac-Arg-Gly-Lys(Ac)-AMC, 1 hour at 30° C. How it is done:
To measure the inhibition of HDAC6 activity, purified human HDAC6 (BPS Bioscience; Cat. No. 5006) is incubated with substrate Ac-Arg-Gly-Lys(Ac)-AMC peptide (Bachem Biosciences; Cat. No. I-1925) for 1 hour at 30° C. in the presence of test compounds or vehicle DMSO control. The reaction is stopped with the HDAC inhibitor trichostatin A (Sigma; Cat. No. T8552) and the amount of Arg-Gly-Lys-AMC generated is quantitated by digestion with trypsin (Sigma; Cat. No. T1426) and subsequent measurement of the amount of AMC released using a fluorescent plate reader (Pherastar; BMG Technologies) set at Ex 340 nm and Em 460 nm. Concentration response curves are generated by calculating the fluorescence increase in test compound-treated samples relative to DMSO-treated controls, and enzyme inhibition (IC50) values are determined from those curves.

SMILES strings stand for the structures. Bounds are passed on as bounds.

Turning to `CN(C)Cc1cc(C(=O)Nc2ccc3ncc(C(=O)NO)cc3c2)cc(C(F)(F)F)c1` [Compound I-1, 6-{[3-[(dimethylamino)methyl]-5-(trifluoromethyl)benzoyl]amino}-N-hydroxyquinoline-3-carboxamide], the IC50 is 100 to 500 nM.
In turn, `O=C(NO)c1cnc2ccc(Oc3cccc(Cl)c3)cc2c1` [Compound I-2, 6-(3-chlorophenoxy)-N-hydroxyquinoline-3-carboxamide] showed an IC50 of 100 to 500 nM.
For `COc1ccc2cc(C(=O)NO)cnc2c1` [Compound I-3, N-hydroxy-7-methoxyquinoline-3-carboxamide], the IC50 is over 500 nM.
`O=C1CCc2c(Oc3ccc4cc(C(=O)NO)cnc4c3)ccnc2N1` [Compound I-4, N-hydroxy-7-[(7-oxo-5,6,7,8-tetrahydro-1,8-naphthyridin-4-yl)oxy]quinoline-3-carboxamide]: the IC50 fell in the range of 100 to 500 nM.
Then `COc1ccc(C(=O)Nc2ccc3cc(C(=O)NO)cnc3c2)cc1` [Compound I-5, N-hydroxy-7-[(4-methoxybenzoyl)amino]quinoline-3-carboxamide], with 100 to 500 nM; and `O=C(NO)c1cnc2ccc(NC(=O)C3CC3)cc2c1` [Compound I-6, 6-[(cyclopropylcarbonyl)amino]-N-hydroxyquinoline-3-carboxamide], with under 100 nM; and `O=C(NO)c1cnc2ccc(Nc3ccccc3)cc2c1` [Compound I-7, 6-anilino-N-hydroxyquinoline-3-carboxamide], with 100 to 500 nM.
Then `Cn1cc(-c2cc(C(=O)Nc3ccc4ncc(C(=O)NO)cc4c3)cc(C(F)(F)F)c2)cn1` [Compound I-8, N-hydroxy-6-{[3-(1-methyl-1H-pyrazol-4-yl)-5-(trifluoromethyl)benzoyl]amino}quinoline-3-carboxamide], with under 100 nM; and `O=C(NO)c1cnc2ccc(Nc3ccncc3)cc2c1` [Compound I-9, N-hydroxy-6-(pyridin-4-ylamino)quinoline-3-carboxamide], with 100 to 500 nM; and `CC(C)(C)OC(=O)Nc1ccc2cc(C(=O)NO)cnc2c1` [Compound I-10, tert-butyl {3-[(hydroxyamino)carbonyl]quinolin-7-yl}carbamate], with under 100 nM.
Then `O=C(NO)c1cnc2ccc(-c3ccncc3)cc2c1` [Compound I-11, N-hydroxy-6-pyridin-4-ylquinoline-3-carboxamide], with under 100 nM; and `O=C(NO)c1cnc2ccc(Oc3ccccc3)cc2c1` [Compound I-12, N-hydroxy-6-phenoxyquinoline-3-carboxamide], with 100 to 500 nM.
`O=C(NO)c1cnc2ccc(NS(=O)(=O)c3ccccc3)cc2c1` [Compound I-13, N-hydroxy-6-[(phenylsulfonyl)amino]quinoline-3-carboxamide] gave an IC50 of under 100 nM.
For the compound `O=C(Nc1ccccc1)Nc1ccc2ncc(C(=O)NO)cc2c1` [Compound I-14, 6-[(anilinocarbonyl)amino]-N-hydroxyquinoline-3-carboxamide], the half-inhibitory concentration (IC50) is under 100 nM.
In the case of `O=C(NO)c1cnc2cc(Oc3cccc(Cl)c3)ccc2c1` [Compound I-15, 7-(3-chlorophenoxy)-N-hydroxyquinoline-3-carboxamide] it was 100 to 500 nM.
In the case of `O=C(NO)c1cnc2cc(Oc3ccc(Cl)cc3)ccc2c1` [Compound I-16, 7-(4-chlorophenoxy)-N-hydroxyquinoline-3-carboxamide] it was 100 to 500 nM; in that of `O=C(NO)c1cnc2ccc(NCc3ccccc3)cc2c1` [Compound I-17, 6-(benzylamino)-N-hydroxyquinoline-3-carboxamide], under 100 nM; in that of `O=C(NO)c1cnc2ccc(CCc3ccccc3)cc2c1` [Compound I-18, N-hydroxy-6-(2-phenylethyl)quinoline-3-carboxamide], under 100 nM.
In the case of `COc1ccc2ncc(C(=O)NO)cc2c1` [Compound I-19, N-hydroxy-6-methoxyquinoline-3-carboxamide] it was over 500 nM; in that of `O=C(NO)c1cnc2ccc(NC(=O)c3ccccc3)cc2c1` [Compound I-20, 6-(benzoylamino)-N-hydroxyquinoline-3-carboxamide], under 100 nM.
On to `CC(C)(C)OC(=O)Nc1ccc2ncc(C(=O)NO)cc2c1` [Compound I-21, tert-butyl {3-[(hydroxyamino)carbonyl]quinolin-6-yl}carbamate], for which the IC50 is under 100 nM.
In the case of `COc1ccc(C(=O)Nc2ccc3ncc(C(=O)NO)cc3c2)cc1` [Compound I-22, N-hydroxy-6-[(4-methoxybenzoyl)amino]quinoline-3-carboxamide] it was under 100 nM.
In the case of `O=C(NO)c1cnc2cc(Oc3ccnc(NC(=O)C4CC4)c3)ccc2c1` [Compound I-23, 7-({2-[(cyclopropylcarbonyl)amino]pyridin-4-yl}oxy)-N-hydroxyquinoline-3-carboxamide] it was 100 to 500 nM.
Regarding `O=C(NO)c1cnc2cc(Nc3ccccc3)ccc2c1` [Compound I-24, 7-anilino-N-hydroxyquinoline-3-carboxamide], the IC50 is under 100 nM.
In the case of `O=C(NO)c1cnc2cc(-c3ccc(Cl)cc3)ccc2c1` [Compound I-25, 7-(4-chlorophenyl)-N-hydroxyquinoline-3-carboxamide] it was 100 to 500 nM; in that of `O=C1CCc2c(Oc3ccc4ncc(C(=O)NO)cc4c3)ccnc2N1` [Compound I-26, N-hydroxy-6-[(7-oxo-5,6,7,8-tetrahydro-1,8-naphthyridin-4-yl)oxy]quinoline-3-carboxamide], 100 to 500 nM.
Then `O=C(NO)c1cnc2ccc(-c3ccc(Cl)cc3)cc2c1` [Compound I-27, 6-(4-chlorophenyl)-N-hydroxyquinoline-3-carboxamide], with 100 to 500 nM; and `O=C(NO)c1cnc2cc(Nc3ccncc3)ccc2c1` [Compound I-28, N-hydroxy-7-(pyridin-4-ylamino)quinoline-3-carboxamide], with under 100 nM; and `O=C(NO)c1cnc2ccc(Oc3ccc(Cl)cc3)cc2c1` [Compound I-29, 6-(4-chlorophenoxy)-N-hydroxyquinoline-3-carboxamide], with 100 to 500 nM.
In the case of `O=C(NO)c1cnc2ccc(Nc3ccc(Cl)cc3)cc2c1` [Compound I-30, 6-[(4-chlorophenyl)amino]-N-hydroxyquinoline-3-carboxamide] it was under 100 nM; in that of `O=C(NO)c1cnc2ccc(Oc3ccnc(NC(=O)C4CC4)c3)cc2c1` [Compound I-31, 6-({2-[(cyclopropylcarbonyl)amino]pyridin-4-yl}oxy)-N-hydroxyquinoline-3-carboxamide], under 100 nM; in that of `O=C(NO)c1cnc2ccc(Oc3ccncc3)cc2c1` [Compound I-32, N-hydroxy-6-(pyridin-4-yloxy)quinoline-3-carboxamide], 100 to 500 nM.
As to `O=C(NO)c1cnc2cc(-c3ccncc3)ccc2c1` [Compound I-33, N-hydroxy-7-pyridin-4-ylquinoline-3-carboxamide], the IC50 fell in the range of 100 to 500 nM.
